Where two headings read alike, the source gives them in different places.

We go through one compound from publication PMC5618418, “Pharmacokinetics of Jaspine B and Enhancement of Intestinal Absorption of Jaspine B in the Presence of Bile Acid in Rats” (Marine Drugs, 2017).

Series [1] in a line: Tissue distribution after intravenous administration. The series is classed as in vivo. To be noted: rat. The protocol: Jaspine B was dissolved in a vehicle containing DMSO: PEG400: saline (2:4:4, v/v/v) and IV-injected via the femoral vein at a dose of 10 mg/kg (vehicle volume, 1 mL/kg). Blood samples were collected from the abdominal artery and animals were euthanized at 0.5 h and 12 h after IV dosing. The blood, brain, liver, kidney, heart, and spleen were immediately excised, gently washed with ice-cold saline, and weighed. The tissue samples were homogenized with 9 volumes of saline. Aliquots of 50 μL of tissue homogenates and plasma were stored at −80 °C until the analysis.
Aliquots (50 μL) of plasma and tissue homogenates were added to 250 μL of acetonitrile containing 0.5 ng/mL of berberine. After vortexing for 10 min and centrifugation at 13,200 rpm for 5 min, an aliquot (2 μL) of the supernatant was injected directly into the LC-MS/MS system. For the analysis of plasma and tissue concentration, the standard curves with a range of 5–1000 ng/mL in the blank plasma and 10% bank tissue homogenates from brain, liver, kidney, heart, and spleen were prepared, and the concentrations of quality control (QC) samples of respective plasma and tissue homogenates were 25 and 750 ng/mL. The recovery of these spiked QC samples were in the range of 73.6–112.2% in all tissue homogenates. Intra- and inter-day precision and accuracy had coefficients of variance of less than 15%.

Series [2] in a line: Metabolic stability in rat liver microsomes. The series is classed as in vitro ADME. To be noted: for percentage remaining: 37 °C. The method, then: Jaspine B (1 μM) was reconstituted in 100 mM potassium phosphate buffer (pH 7.4) containing 0.25 mg of RLMs and was pre-incubated for 5 min at 37 °C. The reaction was initiated by adding an NADPH-generating system (1.3 mM β-NADP, 3.3 mM glucose-6-phosphate, 3.3 mM MgCl2, and 1.0 unit/mL glucose-6-phosphate dehydrogenase) and then incubated (final volume 100 μL) for 0, 15, 30, and 60 min at 37 °C in a shaking water bath. The reaction was stopped by placing the incubation tubes on ice and adding 200 μL of ice-cold acetonitrile containing 0.5 ng/mL of berberine. After vortexing for 10 min and centrifugation at 13,200 rpm for 5 min, 2 μL of the supernatant was injected directly into the LC-MS/MS system.
On the technique in general: Liver microsomes are vesicles of endoplasmic reticulum, rich in cytochrome P450 enzymes.

Series [3] is described as follows: Apparent partition coefficient between n-octanol and PBS. To be noted: n-octanol/PBS pH 7.4, 10 mM TC vs absence of TC, 25 °C. The series is classed as physicochemical. The protocol: The effect of TC on the apparent partition coefficients (APC) of Jaspine B between aqueous and organic phases was investigated. n-Octanol and phosphate-buffered saline (PBS, pH 7.4) were used as the organic and aqueous phases, respectively, in the partition study. n-Octanol and PBS were saturated with respect to one another prior to use. An equal volume of n-octanol was added to PBS (5 mL each) containing Jaspine B (10 mM) and TC (0, 0.1, 1, 10, or 100 mM) in a screw-capped test tube, and the mixture was vortexed vigorously for 5 min followed by shaking for 2 h at 25 °C in a temperature-controlled water bath. After standing for 1 h at 25 °C in the water bath, the mixture was separated into two phases by centrifugation at 3000 rpm for 10 min. The concentration of Jaspine B in a 50-μL aliquot of aqueous and organic phase was measured. Briefly, 50 μL of sample was added to 250 μL of acetonitrile containing 0.5 ng/mL of berberine. After vortexing for 10 min and centrifugation at 13,200 rpm for 5 min, an aliquot (2 μL) of the supernatant was injected directly into the LC-MS/MS system. The APC was calculated from the concentration ratio of each compound between the octanol and PBS phases.

Series [4] in a line: in vitro. The series is classed as in vitro ADME, rat. The method, then:
For the measurement of the effect of TC on the tight junction of biological membranes, the permeability of 50 μM Lucifer yellow, a marker of paracellular permeation, was measured in the presence of TC (0, 0.1, 1, 10, 100 mM). Prior to the experiment, ileal segments from SD rats (about 20 cm) were placed in the chambers and were submerged in fresh, prewarmed (37 °C) HBSS for 15 min for acclimatization. The chambers were continuously bubbled with carbogen gas (5% CO2/ 95% O2) during the experiment. The experiments began by replacing the HBSS with HBSS containing 50 μM Lucifer yellow and various concentrations of TC on the apical side (A) and adding fresh HBSS to the basal side (B). Aliquots (400 μL) of media were withdrawn from the receiver compartment (B) after 0, 20, 40, 60, and 80 min, and the volume of liquid in the receiver compartment was replenished with fresh, prewarmed HBSS after each sampling. Aliquots (200 μL) of all samples were used for the determination of Lucifer yellow concentration. The fluorescence of Lucifer yellow in the samples was measured using a fluorescence spectrophotometer (Infinite 200 PRO, Tecan, Switzerland) with excitation at 425 nm and emission at 535 nm.
A to B and B to A permeability of Jaspine B was measured in the presence of TC and rat bile. One mL of HBSS containing 50 μM Jaspine B and 10 mM TC or 20% bile was added to the donor side and 1 mL of preheated fresh HBSS was added to the receiver side. Aliquots (400 μL) of media were withdrawn at 0, 20, 40, 60, and 80 min from the receiver compartment as described above. Aliquots (50 μL) of all samples were stored at −80 °C until analysis.
Aliquots (50 μL) of all samples were added to 250 μL of acetonitrile containing 0.5 ng/mL of berberine. After vortexing for 10 min and centrifugation at 13,200 rpm for 5 min, 2 μL of the supernatant was injected directly into the LC-MS/MS system.
The apparent permeability (Papp) of the drug was calculated by dividing the initial drug transport rate (dQ/dt, pmol/min) by the initial drug concentration in the donor compartment of the insert (Co) multiplied by the surface area of the insert (A, cm^2): (3) Papp=dQ/dt×1/ACo

The subject of series [5] is metastatic melanoma cell growth in the lungs. On the set-up: method as in PMID 22451302. To be noted: mice, intravenous (equivalent to 6.7 mg/kg) on 4th, 8th, 12th day, read on day 14; cited from earlier work.
The mark [6] stands for this setting: Sprague-Dawley (SD), brain, IV 10 mg/kg, read-out: T/P ratio, brain.
Setting [7] is: Sprague-Dawley (SD), kidney, IV 10 mg/kg, read-out: T/P ratio, kidney.
[8] abbreviates: Sprague-Dawley (SD), liver, IV 10 mg/kg, read-out: T/P ratio, liver.

For `CCCCCCCCCCCCCC[C@@H]1OC[C@H](N)[C@@H]1O` [Jaspine B], the Kp at 0.5 h in series [1] (setting [6]) is 6.2; in series [1] (Sprague-Dawley (SD), heart, IV 10 mg/kg, read-out: T/P ratio, heart), 14.4; in series [1] (setting [7]), 11.1; in series [1] (setting [8]) it was 2.3; in series [1] (Sprague-Dawley (SD), spleen, IV 10 mg/kg, read-out: T/P ratio, spleen), 18.5. The Kp at 12 h in series [1] (setting [6]) was 1.8; in series [1] (setting [7]), 4.7; in series [1] (setting [8]) it was 1.2; in series [1] (Sprague-Dawley, brain, kidney, heart, spleen, 10 mg/kg, single IV administration, read-out: T/P ratios in brain, kidney, heart and spleen), 2 to 4; in series [1] (Sprague-Dawley, heart, IV 10 mg/kg, read-out: T/P ratio, heart), 3.2; in series [1] (Sprague-Dawley, spleen, IV 10 mg/kg, read-out: T/P ratio, spleen), 3.9. Moreover, the percentage remaining was found to be 59.8% in series [2] (1 μM, rat liver microsomes, NADPH-generating system, 30 min) and 20.4% in series [2] (1 μM, rat liver microsomes, NADPH-generating system, 60 min). In series [2] (1 h incubation with rat liver microsomes), this compound returned a degraded of 80%. In series [2] (pH 7.4, 1 μM, rat liver microsomes, NADPH-generating system, read-out: degradation half-life (T1/2)), the half-life at 1 μM amounted to 24 min. In addition, in series [3], the “increase of partition coefficient” value was determined as 10 fold. In addition, the permeability change result in series [4] was “increased the permeability”. In series [4] (Sprague-Dawley, rat), this compound returned an apparent permeability (Papp) at 80 min, 50 μM of 0.11 ×10⁻⁶ cm/s. Further, in series [4] (Sprague-Dawley, rat, 80 min, 50 μM), the “increase of secretory (B to A) permeability” value is recorded as “approximately 5 fold”. Further, the “metastatic melanoma cell growth in the lungs” value in series [5] was “dramatically decreased”.

In general, Papp refers to the rate of passage across a membrane or cell layer, normalised by area and donor concentration. High values mean fast passage, low ones slow passage.
